These results are taken from patent US20030119895A1, “Methods using a combination of a 3-heteroaryl-2-indolinone and a cyclooxygenase-2 inhibitor for the treatment of neoplasia” (Pharmacia Corporation, priority 1998, published 2003).

Assay [1] deals with HUV-EC-C cells (human umbilical vein endothelial cells). In words: HUV-EC-C Assay, VEGF-stimulated [3H] thymidine incorporation. Type of assay: cell-based. As to conditions: Mitogenesis in Endothelial Cells. (In general: Uptake of a labelled nucleoside into DNA is a usual measure of proliferation.)
The next assay relates to EpH4-VEGF. In words: Xenograft Assay 2: FLK-1/Xenograft Model, subcutaneous xenograft (In Vivo Data, EpH4-VEGF). On the set-up: species or system mice. The procedure: Assay 2: FLK-1/Xenograft Model
The ability of the compounds of the present invention to inhibit ovarian, melanoma, prostate, lung and mammary tumor cell lines established as SC xenografts was examined. These studies were conducted using doses ranging from 1 to 75 mg/kg/day.
Materials And Methods. The tumor cells were implanted subcutaneously into the indicated strains of mice. Treatment was initiated on day 1 post implantation unless otherwise indicated (e.g. treatment of the SCID mouse related to the A375 melanoma cell line began on Day 9). Eight (8) to sixteen (16) mice comprised each test group.
Animals. Female athymic mice (BALB/c, nu/nu), BALB/c mice, Wistar rats and Fisher 344 rats were obtained from Simonsen Laboratories (Gilroy, Calif.). Female A/I mice were obtained from Jackson Laboratory (Bar Harbor, Me.). DA rats were obtained from B&K Universal, Inc. (Fremont, Calif.). Athymic R/Nu rats, DBA/2N mice, and BALB/c mice were obtained from Harlan Sprague Dawley (Indianapolis, Ind.). Female C57BU6 mice were obtained from Taconic (Germantown, N.Y.). All animals were maintained under clean-room conditions in Micro-isolator cages with Alpha-dri bedding. They received sterile rodent chow and water ad libitum.
All procedures were conducted in accordance with the NIH Guide for the Care and Use Of Laboratory Animals.
Subcutaneous Xenograft Model. Cell lines were grown in appropriate medium as described. Cells were harvested at or near confluency with 0.05% Trypsin-EDTA and pelleted at 450×g for 10 min. Pellets were resuspended in sterile PBS or media (without FBS) to a suitable concentration indicated in the Figure legends and the cells were implanted into the hindflank of mice. Tumor growth-was measured over 3 to 6 weeks using venier calipers and tumor volumes were calculated as a product of length x width x height unless otherwise indicated. P values were calculated using the Students' t-test.
Different concentrations of a compound in 50-100 μl excipient (dimethylsulfoxide, PBTE, PBTE6C:D5W, or PBTE:D5W) were delivered by IP injection.
Results for various compounds obtained from the above-described in vivo assays are set forth at Table 5, below: […]

Another assay has as its target T1, HER2 kinase (Homo sapiens, UniProt P04626).
T1 construct: fused on or other part: The EGFR extracellular domain serves for EGF stimulation and for capture by mAb 05-101; The HER2 part carries the kinase domain; P00533 (Epidermal growth factor receptor)
Kind of assay: HER-2 ELISA Assay 1: EGF Receptor-HER2 Chimeric Receptor Assay In Whole Cells. The settings on record: ELISA Assay Results. The format is cell-based.

For assay [2], the system named is HUV-EC-C cells (human umbilical vein endothelial cells). Kind of assay: HUV-EC-C Assay, a-FGF (ECGF)-stimulated [3H] thymidine incorporation. Type of assay: cell-based. The settings on record: Homo sapiens, HUVEC, Mitogenesis in Endothelial Cells. As for the experimental part: The following protocol may also be used to measure the composition's activity:
1. […] After cells have detached from the flask, add an equal volume of assay medium and transfer to a 50 ml sterile centrifuge tube (Fisher Scientific; catalogue no. 05-539-6).
2. Wash the cells with about 35 ml assay medium in the 50 ml sterile centrifuge, tube by adding the assay medium, centrifuge for 10 minutes at approximately 200× g, aspirate the supernatant, and resuspend with 35 ml D-PBS. Repeat the wash two more times with D-PBS, resuspend the cells in about 1 ml assay medium/15 cm^2 of tissue culture flask. Assay medium consists of F12K medium (Gibco BRL; catalogue no. 21127-014)+0.5% heat-inactivated fetal bovine serum. Count the cells with a Coulter Counter.RTM.v Coulter Electronics, Inc.) and add assay medium to the cells to obtain a concentration of 0.8-1.0×10^5 cells/ml.
3. Add cells to 96-well flat-bottom plates at 100 μl/well or 0.8-1.0×10^4 cells/well; incubate about 24 h at 37° C., 5% CO2.
1. Make up two-fold drug titrations in separate 96-well plates, generally 50 μM on down to 0 μM. Use the same assay medium as mentioned in day 0, step 2 above. Titrations are made by adding […] of drug at 200 μM (4× the final well concentration) to the top well of a particular plate column. Since the stock drug concentration is usually 20 mM in DMSO, the 200 μM drug concentration contains 2% DMSO. Therefore, diluent made up to 2% DMSO in assay medium (F12K+0.5% fetal bovine serum) is used as diluent for the drug titrations in order to dilute the drug but keep the DMSO concentration constant. Add this diluent to the remaining wells in the column at 60 μl/well. Take 60 μl from the 120 μl of 200 μM drug dilution in the top well of the column and mix with the 60 μl in the second well of the column. Take 60 μl from this well and mix with the 60 μl in the third well of the column, and so on until two-fold titrations are completed. When the next-to-the-last well is mixed, take 60 μl of the 120 μl in this well and discard it. Leave the last well with 60 μl of DMSO/media diluent as a non-drug-containing control. Make 9 columns of titrated drug, enough for triplicate wells each for 1) VEGF (obtained from Pepro Tech Inc., catalogue no. 100-200, 2) endothelial cell growth factor (ECGF) (also known as acidic fibroblast growth factor, or aFGF) (obtained from Boehringer Mannheim Biochemica, catalogue no. 1439 600), and assay media control. ECGF comes as a preparation with sodium heparin.
2. Transfer 50 μl/well of the drug dilutions to the 96-well assay plates containing the 0.8-1.0×10^4 cells/100 μl/well of the HUV-EC-C cells from day 0 and […] incubate ~2 h at 37° C., 5% CO2.
3. In triplicate, add 50 μl/well of 80 ng/ml VEGF, 20 ng/ml ECGF, or media control to each drug condition. As with the drugs, the growth factor concentrations are 4× the desired final concentration. Use the assay media from day 0 step 2 to make the concentrations of growth factors. Incubate approximately 24 hours at 37° C., 5% CO2. Each well will have 50 μl drug dilution, 50 μl growth factor or media, and 100 ul cells,=200 ul/well total. Thus the 4× concentrations of drugs and growth factors become 1× once everything has been added to the wells.
1. Add ^3H-thymidine (Amersham; catalogue no. TRK-686) at 1 μCi/well (10 μl/well of 100 μCi/ml solution made up in RPMI media+10% heat-inactivated fetal bovine serum) and incubate about 24 h at 37° C., 5% CO2.
Note: ^3H-thymidine is made up in RPMI media because all of the other applications for which we use the ^3H-thymidine involve experiments done in RPMI. The media difference at this step is probably not significant. RPMI was obtained from Gibco BRL, catalogue no. 11875-051.
1. Freeze plates overnight at −20° C.
1. Thaw plates and harvest with a 96-well plate harvester (Tomtec Harvester 96.RTM.) onto filter mats (Wallac; catalogue no. 1205-401); read counts on a Wallac Betaplate™ liquid scintillation counter.

For assay [3], the system named is 3T3/PDGF-βR/PDGF-BB(T) (NIH 3T3 cells expressing PDGFβ-receptor and PDGF-BB). Kind of assay: SRB Assay 3: 3T3/PDGF-βR/PDGF-BB(T) Cell Growth SRB Assay. Type of assay: cell-based. The settings on record: Mus musculus, NIH3T3, SRB Readout, read-out: 3T3/PDGFR + PDGF (T) IC50. The procedure: Assay 3: 3T3/PDGF-βR/PDGF-BB(T) Cell Growth SRB Assay
Cell line and growth medium:
3T3/PDGF-βR/PDGF-BB(T) (NIH 3T3 clone 7 cells expressing PDGFβ-receptor and PDGF-BB, from tumors resected from athymic mice) 2% calf serum/DMEM+2 mM glutamine
This part of assay is carried out in a laminar flow hood.
1. Trypsinize cells as usual. Transfer 200 μl of cell suspension to 10 ml of isotone. Count cells on the Coulter Counter.
2. Dilute cells in growth medium to 60,000 cells/ml. Transfer 100 μl of cells to each well in a 96-well flat bottom plate to give 6000 cells/well.
3. Allow half of plate (4 rows) for each compound and quadruplicate wells for each compound concentration, a set of 4 wells for medium control and 4 wells for DMSO control.
4. Gently shake plates to allow for uniform attachment of the cells to the plate.
5. Incubate the plates at 37° C. in a 10% CO2 incubator.
Day 1: Addition of Compound: same as for Assay 1.
Day 5: Development of Assay: same as for Assay 1.
3T3/E/H+TGF-α(T): NIH 3T3 cells expressing EGFR/HER2 chimera and TGF-α, tumor-derived 3T3/EGFR+TGF-α(T): NIH 3T3 cells expressing EGFR and TGF-α, tumor-derived 3T3/PDGFR+PDGF(T): NIH 3T3 cells expressing PDGF-βR and PDGF-ββ, tumor-derived SMC: human smooth muscle cells from Clonetics

The next assay has as its target T2, FLK-1 receptor (Mus musculus, UniProt P35918).
T2 construct: expressed in transfected cells; host or cells: NIH3T3 C7#3 (FLK-1/NIH3T3)
Kind of assay: FLK-1 ELISA (kinase activity of the FLK-1 receptor in FLK-1/NIH3T3 cells). The format is cell-based. The settings on record: ELISA Assay Results, VEGF stimulation.

The subject of assay [4] is fibroblast growth factor-induced corneal angiogenesis. The settings on record: rats; cited from earlier work.
For another assay, the target named is T3, PDGFR (Homo sapiens, UniProt P09619).
T3 construct: other: ELISA Assay Results; U1242 cells
T3 sequence (P09619 33-1106): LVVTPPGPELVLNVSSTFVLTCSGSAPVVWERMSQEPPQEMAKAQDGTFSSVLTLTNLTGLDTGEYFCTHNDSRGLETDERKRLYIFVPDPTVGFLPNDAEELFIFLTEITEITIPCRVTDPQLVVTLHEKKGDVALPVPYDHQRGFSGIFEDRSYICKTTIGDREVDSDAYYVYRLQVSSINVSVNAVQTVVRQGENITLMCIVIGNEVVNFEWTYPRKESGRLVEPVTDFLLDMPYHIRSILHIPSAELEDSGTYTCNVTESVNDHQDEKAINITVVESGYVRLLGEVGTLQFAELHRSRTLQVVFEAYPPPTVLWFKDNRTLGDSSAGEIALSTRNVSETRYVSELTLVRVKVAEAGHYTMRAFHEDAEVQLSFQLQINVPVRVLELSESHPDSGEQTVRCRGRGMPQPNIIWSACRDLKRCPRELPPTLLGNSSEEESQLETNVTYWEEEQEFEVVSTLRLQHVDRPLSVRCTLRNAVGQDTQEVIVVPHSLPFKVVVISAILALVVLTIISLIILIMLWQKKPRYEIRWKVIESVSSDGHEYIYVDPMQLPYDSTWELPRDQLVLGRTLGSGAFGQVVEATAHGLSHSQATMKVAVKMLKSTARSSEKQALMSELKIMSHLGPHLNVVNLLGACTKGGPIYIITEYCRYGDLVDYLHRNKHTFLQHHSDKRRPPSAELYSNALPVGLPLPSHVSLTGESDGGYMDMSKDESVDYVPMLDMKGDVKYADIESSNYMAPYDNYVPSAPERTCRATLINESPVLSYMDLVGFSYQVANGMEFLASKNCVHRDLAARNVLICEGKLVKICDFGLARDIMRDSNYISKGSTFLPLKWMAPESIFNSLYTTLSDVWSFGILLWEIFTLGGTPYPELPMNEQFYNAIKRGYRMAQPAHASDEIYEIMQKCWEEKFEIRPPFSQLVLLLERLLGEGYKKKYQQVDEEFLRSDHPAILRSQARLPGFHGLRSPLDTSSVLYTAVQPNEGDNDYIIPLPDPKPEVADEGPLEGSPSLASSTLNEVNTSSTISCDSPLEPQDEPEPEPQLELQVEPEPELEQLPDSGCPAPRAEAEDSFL
In words: PDGF-R ELISA (U1242 cells). Type of assay: cell-based. The settings on record: ELISA Assay Results. On the technique in general: In an ELISA, binding on a coated surface is turned into a signal by an enzyme label.

The subject of assay [5] is 3T3/E/H+TGF-a(T) (NIH 3T3 cells expressing EGFR/HER2 chimera and TGF-a). Kind of assay: SRB Assay 1: 3T3/E/H+TGF-a(T) Cell Growth SRB Assay. As to conditions: Mus musculus, NIH3T3, SRB Readout. The format is cell-based.
Description: Sulforhodamine B (SRB) Growth Assays
The assays are carried out as follows:
0.4% SRB in 1% acetic acid
compound in DMSO (100 mM or less stock solution)
Cell Line and Growth Medium:
Trypsinize cells as usual. Transfer 100 μl of cell suspension to 10 ml of isotone. Count cells with the Coulter Counter.
Gently shake plates to allow for uniform attachment of the cells.
In 96 well-round bottom plate, add 125 μl of growth medium to columns 3-11.
At this dilution, the concentration of DMSO is 0.4% for a 2× solution or 0.2% for 1× solution on the cells.
Transfer the 2× starting compound solution to quadruplicate wells in column 12 of the 96-well round bottom plate. […] Transfer 100 μl of compound dilutions onto 100 μl medium on cells in corresponding wells of 96-well flat bottom plate. Total volume per well should be 200 μl.
For vehicle control, prepare a 2× solution of DMSO at 0.4% DMSO in growth medium. […]
Read plates on Dynatech ELISA Plate Reader at 570 nm with reference at 630 nm.

Several values for one entry are separate records, joined by “and”; a condition that tells them apart may be missing. Equal values may be shown once.

T1 sequence (P04626 720-987 limits assumed): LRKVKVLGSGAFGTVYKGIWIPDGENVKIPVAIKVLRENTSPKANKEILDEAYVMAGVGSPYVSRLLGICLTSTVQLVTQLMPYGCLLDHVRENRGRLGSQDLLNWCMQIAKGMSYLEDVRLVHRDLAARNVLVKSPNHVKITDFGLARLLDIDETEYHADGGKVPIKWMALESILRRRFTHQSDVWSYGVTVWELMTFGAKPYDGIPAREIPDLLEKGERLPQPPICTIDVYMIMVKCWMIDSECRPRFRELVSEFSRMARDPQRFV
T2 sequence (P35918 20-1345): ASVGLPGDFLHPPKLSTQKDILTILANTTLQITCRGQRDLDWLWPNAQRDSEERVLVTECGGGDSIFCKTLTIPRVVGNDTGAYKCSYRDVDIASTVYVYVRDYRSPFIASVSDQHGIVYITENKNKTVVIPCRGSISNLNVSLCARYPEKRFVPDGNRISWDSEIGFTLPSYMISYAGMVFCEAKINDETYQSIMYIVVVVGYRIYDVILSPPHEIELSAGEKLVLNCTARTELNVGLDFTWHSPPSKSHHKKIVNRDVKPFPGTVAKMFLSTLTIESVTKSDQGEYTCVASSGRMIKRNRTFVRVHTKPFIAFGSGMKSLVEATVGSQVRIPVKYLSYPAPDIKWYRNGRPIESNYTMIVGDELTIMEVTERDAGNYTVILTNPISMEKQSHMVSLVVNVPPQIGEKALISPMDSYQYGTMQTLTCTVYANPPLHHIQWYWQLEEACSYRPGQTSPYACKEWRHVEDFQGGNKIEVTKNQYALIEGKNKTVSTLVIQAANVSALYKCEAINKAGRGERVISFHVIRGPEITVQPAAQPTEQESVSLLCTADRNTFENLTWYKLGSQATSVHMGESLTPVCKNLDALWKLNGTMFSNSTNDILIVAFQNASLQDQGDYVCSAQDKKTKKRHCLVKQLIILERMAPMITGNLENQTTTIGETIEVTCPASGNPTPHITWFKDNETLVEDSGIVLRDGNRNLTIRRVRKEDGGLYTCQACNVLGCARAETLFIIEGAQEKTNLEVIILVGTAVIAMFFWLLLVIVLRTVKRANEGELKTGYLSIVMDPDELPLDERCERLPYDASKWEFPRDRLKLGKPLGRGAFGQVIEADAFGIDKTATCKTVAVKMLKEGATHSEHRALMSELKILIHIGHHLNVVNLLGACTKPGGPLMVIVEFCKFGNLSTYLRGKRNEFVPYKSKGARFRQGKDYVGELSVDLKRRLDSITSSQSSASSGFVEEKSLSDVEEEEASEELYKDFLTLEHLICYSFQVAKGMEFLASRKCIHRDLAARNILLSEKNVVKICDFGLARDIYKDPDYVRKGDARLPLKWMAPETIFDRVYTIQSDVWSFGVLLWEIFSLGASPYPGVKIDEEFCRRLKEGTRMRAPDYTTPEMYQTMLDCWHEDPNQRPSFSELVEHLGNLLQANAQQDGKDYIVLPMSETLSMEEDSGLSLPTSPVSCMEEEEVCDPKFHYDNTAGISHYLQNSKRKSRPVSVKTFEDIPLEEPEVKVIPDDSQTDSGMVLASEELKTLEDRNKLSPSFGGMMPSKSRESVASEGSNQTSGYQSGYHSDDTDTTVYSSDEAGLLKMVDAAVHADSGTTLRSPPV
Description for FLK-1 receptor: An ELISA assay was conducted to measure the kinase activity of the FLK-1 receptor and more specifically, the inhibition or activation of protein tyrosine kinase activity on the FLK-1 receptor. Specifically, the following assay was conducted to measure kinase activity of the FLK-1 receptor in FLK-1/NIH3T3 cells.
The following reagents and supplies were used:
PBS (Gibco Catalog No. 450-1300EB);
Ethanolamine stock (10% ethanolamine (pH 7.0), stored at 4° C.);
HNTG buffer (20 mM HEPES buffer (pH 7.5),150 mM NaCl, 0.2% Triton X-100, and 10% glycerol);
EDTA (0.5M (pH 7.0) as a 100× stock);
Sodium ortho vanadate (0.5M as a 100× stock);
Sodium pyro phosphate (0.2M as a 100× stock);
NIH3T3 C7#3 Cells (FLK-1 expressing cells);
VEGF, PeproTech, Inc. (catalog no. 100-20)(kept as 1 μg/100 til stock in Milli-Q dH2O and stored at −20° C. Affinity purified anti-FLK-1 antiserum, Enzymology Lab, Sugen, Inc.;
H2 02 (30% solution) (Fisher catalog no. H325);
Protocol. The following protocol was used for conducting the assay:
Coat Corning 96-well elisa plates with 1.0 μg per well Cappel Anti-rabbit IgG antibody in 0.1M Na2 CO3 pH 9.6. Bring final volume to 150 μl per well. Coat plates overnight at 4° C. Plates can be kept up to two weeks when stored at 4° C.
Grow cells in Growth media(DMEM, supplemental with 2.0 mM L-Glutamine, 10% FBS) in suitable culture dishes until confluent at 37° C., 5% CO2. […]
Description for HER2 kinase: Assay 1 EGF Receptor-HER2 Chimeric Receptor Assay In Whole Cells. HER2 kinase activity in hole EGFR-NIH3T3 cells was measured as described below:
Materials and Reagents. The following materials and reagents were used to conduct the assay:
Anti-phosphotyrosine antibody (anti-Ptyr) (polyclonal)(see, Fendley, et al., supra).
Detection antibody: Goat anti-rabbit IgG horse radish peroxidase conjugate, TAGO, Inc., Burlingame, Calif.
Procedure. The following protocol was used:
Coated plates are good for up to 10 days when stored at 4° C.
On day of use, remove coating buffer and replace with 100 μl blocking buffer (5% Carnation Instant Non-Fat Dry Milk in PBS). Incubate the plate, shaking, at room temperature (about 23° C. to 25° C.) for 30 minutes. Just prior to use, remove blocking buffer and wash plate 4 times with TBST buffer.
An NIH3T3 cell line overexpressing a chimeric receptor containing the EGFR extracellular domain and extracellular HER2 kinase domain can be used for this assay.
Choose dishes having 80-90% confluence for the experiment. Trypsinize cells and stop reaction by adding 10% fetal bovine serum. Suspend cells in DMEM medium (10% CS DMEM medium) and centrifuge once at 1500 rpm, at room temperature for 5 minutes.
Resuspend cells in seeding medium (DMEM, 0.5% bovine serum), and count the cells using trypan blue. Viability above 90% is acceptable. Seed cells in DMEM medium (0.5% bovine serum) at a density of 10,000 cells per well, 100 μL per well, in a 96 well microtiter plate. Incubate seeded cells in 5% CO2 at 37° C. for about 40 hours.
Check seeded cells for contamination using an inverted microscope. Dilute drug stock (10 mg/ml in DMSO) 1:10 in DMEM medium, then transfer 51 to a TBST well for a final drug dilution of 1:200 and a final DMSO concentration of 1%. Control wells receive DMSO alone. Incubate in 5% CO2 at 37° C. for two hours.
Prepare EGF ligand: dilute stock EGF in DMEM so that upon transfer of 10 μl dilute EGF (1:12 dilution), 100 nM final concentration is attained.
Prepare fresh HNTG* sufficient for 100 μl per well; and place on ice.
After 120 minutes incubation with drug, add prepared SGF ligand to cells, 10 μl per well, to a final concentration of 100 nM. Control wells receive DMEM alone. Incubate, shaking, at room temperature, for 5 minutes.
Remove drug, EGF, and DMEM. Wash cells twice with PBS. Transfer HNTG* to cells, 100 μl per well. Place on ice for 5 minutes. Meanwhile, remove blocking buffer from other ELISA plate and wash with TBST as described above.
With a pipette tip securely fitted to a micropipettor, scrape cells from plate and homogenize cell material by repeatedly aspirating and dispensing the HNTG* lysis buffer. Transfer lysate to a coated, blocked, and washed ELISA plate. Incubate shaking at room temperature for one hour.
Remove lysate and wash 4 times with TBST. Transfer freshly diluted anti-Ptyr antibody to ELISA plate at 100 μl per well. Incubate shaking at room temperature for 30 minutes in the presence of the anti-Ptyr antiserum (1:3000 dilution in TBST).
Remove the anti-Ptyr antibody and wash 4 times with TBST. Transfer the freshly diluted TAGO anti-rabbit IgG antibody to the ELISA plate at 100 μl per well., Incubate shaking at room temperature for 30 minutes (anti-rabbit IgG antibody: 1:3000 dilution in TBST).
Remove TAGO detection antibody and wash 4 times with TBST. Transfer freshly prepared ABTS/H2O2 solution to ELISA plate, 100 μl per well. Incubate shaking at room temperature for 20 minutes. (ABTS/H2O2 solution: 1.0 μl 30% H2O2 in 10 ml ABTS stock).
Stop reaction by adding 50 μl 5N H2 SO4 (optional), and determine O.D. at 410 nm.
The maximal phosphotyrosine signal is determined by subtracting the value of the negative controls from the positive controls. The percent inhibition of phosphotyrosine content for extract-containing wells is then calculated, after subtraction of the negative controls.
Description for PDGFR: All cell culture media, glutamine, and fetal bovine serum were purchased from Gibco Life Technologies (Grand Island, N.Y.) unless otherwise specified. […] All cell lines were routinely subcultured twice a week and were negative for mycoplasma as determined by the Mycotect method (Gibco).
For ELISA assays, cells (U1242, obtained from Joseph Schlessinger, NYU) were grown to 80-90% confluency in growth medium (MEM with 10% FBS, NEAA, 1 mM NaPyr and 2 mM GLN) and seeded in 96-well tissue culture plates in 0.5% serum at 25,000 to 30,000 cells per well. […] Lysates were incubated with shaking for 1 hour at room temperature. The plates were washed with TBST four times and then incubated with polyclonal anti-phosphotyrosine antibody at room temperature for 30 minutes. Excess anti-phosphotyrosine antibody was removed by rinsing the plate with TBST four times. Goat anti-rabbit IgG antibody was added to the ELISA plate for 30 min at room temperature followed by rinsing with TBST four more times. […] Absorbance at 410 nm with a reference wavelength of 630 nm was recorded about 15 to 30 min after ABTS addition.

Regarding `Cc1ccsc1C=C1C(=O)Nc2ccccc21` [SU5427, 3-[(3-Methylthien-2-yl)methylene]-2-indolinone], the IC50 worked out at 5.7 µM in assay [1] (Homo sapiens, HUVEC) and 70.6 µM at HER2 kinase. The “EpH4-VEGF % inhibition @ mg/kg” value in the assay with EpH4-VEGF (@ 50 mg/kg) is 47% @ 50 and 65% @ 50.

Turning to `COc1ccc(C=C2C(=O)Nc3ccccc32)c(Cl)c1` [SU5480, 3-[2-Chloro-4-methoxybenzylidenyl]-2-indolinone], the IC50 in assay [1] (Homo sapiens, HUVEC) stood at 1.2 µM; in [2], 3.8 µM; on HER2 kinase, 30.4 µM.

As for `O=CN1CCN(c2ccc(C=C3C(=O)Nc4ccccc43)cc2)CC1` [SU4984, 3-[4-(4-Formylpiperazin-1-yl)benzylidenyl]-2-indolinone], the IC50 amounted to 22.2 µM in assay [3]; 0.8 µM in assay [1] (Homo sapiens, HUVEC); 1.6 µM against FLK-1 receptor; 25.8 µM in assay [2]; 90.2 µM against HER2 kinase.

Regarding `Cc1ccc(-c2cc(C(F)(F)F)nn2-c2ccc(S(N)(=O)=O)cc2)cc1` [Celecoxib, celecoxib], the “inhibition of fibroblast growth factor-induced corneal angiogenesis” value in [4] was “potent inhibition”.

On to `CCOc1ccccc1C=C1C(=O)Nc2ccccc21` [SU5204, 3-(2-Ethoxybenzylidenyl]-2-indolinone], for which the IC50 in assay [1] (Homo sapiens, HUVEC) was determined as 2.3 µM; in [2], 0.7 µM; against HER2 kinase, 51.5 µM.

On to `CN1C(=O)C(=Cc2ccc(Br)cc2)c2ccccc21` [SU4956, 3-(4-Bromobenzylidenyl)-1-methyl-2-indolinone], for which the IC50 came out at 8 µM in assay [1] (Homo sapiens, HUVEC); 13 µM in assay [2]; 22.5 µM against HER2 kinase.

For the molecule `CC(=O)Nc1ccc(C=C2C(=O)Nc3ccccc32)cc1` [SU4944, 3-(4-Acetylaminobenzylidenyl)-2-indolinone], the IC50 in assay [1] worked out at 14.8 µM; on FLK-1 receptor it was 8.5 µM.

In the case of `CN1C(=O)C(=Cc2ccc(N3CCOCC3)cc2)c2ccccc21` [SU4982, 1-Methyl-3-[4-(morpholin-4-yl)benzylidenyl]-2-indolinone], the IC50 in assay [1] (Homo sapiens, HUVEC) came to 46.1 µM; in assay [2], 27.3 µM; at HER2 kinase it was 39.4 µM.

For the molecule `COc1ccc(OC)c(C=C2C(=O)Nc3ccccc32)c1` [SU4793, 3-(2,5-Dimethoxybenzylidenyl)-2-indolinone], the IC50 in assay [1] (Homo sapiens, HUVEC) was determined as 6.6 µM; in assay [2] it was 3.4 µM; against PDGFR, 87.4 µM.

Consider `CN(C)c1ccc(C=C2C(=O)Nc3ccccc32)cc1` [SU4312, 3-(4-Dimethylaminobenzylidenyl)-2-indolinone], for which the IC50 was 36 µM in assay [5]; 1.1 µM in assay [1] (Homo sapiens, HUVEC); 154 µM in assay [2]. Moreover, the “EpH4-VEGF % inhibition @ mg/kg” value in the assay on EpH4-VEGF (@ 50 mg/kg) was 63% @ 50; in the assay on EpH4-VEGF (@ 75 mg/kg), 56% @ 75 and 50% @ 75.
